Measured values published in patent publication US7723358B2, “Aroyl-O-piperidine derivatives for the treatment of diabetes-related problems” (Merck Patent GmbH, priority 2004, dated 2010).

Experiments:
[1] = tested on: apo B secretion in HepG2 cells; test: Secretion of apo B in the HepG2 human cell line (sandwich-ELISA); assay type: cell-based; details: 24 hours incubation, culture supernatant, read-out: IC50, concentration that produces a 50% inhibition of apo B secretion in the HepG2 cells
Description: Analysis of the Secretion of apo B in the HepG2 Human Cell Line:
The activity of a compound according to the invention can be evaluated by measuring the inhibition of apo B secretion in HepG2 cells.
The HepG2 cells (ECACC—No. 85011430) are used as model in the study of the in vitro hepatic secretion of lipoproteins (Dixon J. and Ginsberg H., J., Lipid. Res., 1993, 34, 167-179).
The HepG2 cells are cultured in Dulbecco's modified Eagle's medium comprising 10% foetal calf serum (DMEM and FBS—Gibco) in 96-well plates under an atmosphere of 5% carbon dioxide for 24 hours (about 70% confluence).
The test compounds are dissolved at a concentration of 2 or 10 mM in dimethyl sulfoxide (DMSO). Serial dilutions (1:3.16) are made in DMSO and are added (1:200—Robot Multimek Beckman) to the growth medium (200 μL) and then finally incubated for 24 hours in the various wells containing the HepG2 cells.
The 24-hour culture supernatant diluted to 1:5 (phosphate-buffered saline:PBS comprising 1% bovine serum albumin) is tested according to a sandwich-ELISA method specific for human apo B.
The results are expressed in terms of IC50, i.e. the concentration that produces a 50% inhibition of apo B secretion in the HepG2 cells.

[2] = target: T1, microsomal triglyceride transfer protein (MTP) (Mesocricetus auratus, UniProt P55158); test: Inhibition of MTP activity: transfer of [3H]-triolein from donor liposomes to biotinylated LDL, SPA; assay type: biochemical; details: MTP from golden hamster liver; incubation 18-24 hours at 37° C.; read-out: IC50, concentration that allows a 50% inhibition of MTP
T1 construct: The supernatant comprising the soluble MTP is dialysed against Tris/HCl 150 mM; from tissue; host or cells: golden hamster liver microsomes, deoxycholate-solubilised supernatant, dialysed
T1 sequence (P55158 19-895): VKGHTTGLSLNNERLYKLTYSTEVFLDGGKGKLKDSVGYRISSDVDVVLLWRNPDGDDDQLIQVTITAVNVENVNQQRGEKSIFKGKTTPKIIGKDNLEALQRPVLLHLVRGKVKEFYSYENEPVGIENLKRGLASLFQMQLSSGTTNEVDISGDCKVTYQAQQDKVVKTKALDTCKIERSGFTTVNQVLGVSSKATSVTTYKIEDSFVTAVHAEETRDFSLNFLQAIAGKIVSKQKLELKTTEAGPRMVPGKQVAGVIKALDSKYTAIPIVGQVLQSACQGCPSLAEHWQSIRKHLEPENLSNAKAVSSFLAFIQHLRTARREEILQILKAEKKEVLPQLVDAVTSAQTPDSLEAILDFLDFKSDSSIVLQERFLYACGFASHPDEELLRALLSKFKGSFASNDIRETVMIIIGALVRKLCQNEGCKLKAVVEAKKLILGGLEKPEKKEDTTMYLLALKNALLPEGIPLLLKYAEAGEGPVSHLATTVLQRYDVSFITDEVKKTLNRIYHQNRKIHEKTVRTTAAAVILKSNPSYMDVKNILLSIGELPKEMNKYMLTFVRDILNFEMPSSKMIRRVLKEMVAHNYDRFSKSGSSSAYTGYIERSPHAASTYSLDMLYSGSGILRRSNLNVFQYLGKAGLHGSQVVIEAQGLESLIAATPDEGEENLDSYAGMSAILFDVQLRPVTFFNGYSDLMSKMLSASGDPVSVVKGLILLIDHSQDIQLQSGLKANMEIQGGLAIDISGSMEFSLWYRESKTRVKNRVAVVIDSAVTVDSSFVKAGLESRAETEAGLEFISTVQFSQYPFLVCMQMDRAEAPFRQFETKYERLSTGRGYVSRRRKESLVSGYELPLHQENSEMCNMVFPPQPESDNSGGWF
Procedure, shortened: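 Soluble MTP was extracted with deoxycholate from golden hamster liver microsomes. It was incubated with [3H]-triolein/phosphatidylcholine donor liposomes, biotinylated LDL acceptors and compound in DMSO in HEPES/NaCl/BSA buffer, pH 7.4, for 18-24 h at 37° C. Transfer was read with streptavidin SPA beads, and IC50 was taken as 50% inhibition of transfer.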

Structure (SMILES)	IC50 [1]	IC50 [2]
Cc1cccc(C(=O)Nc2cccc(OC3CCN(S(C)(=O)=O)CC3)c2)c1-c1ccc(OC(F)(F)F)cc1 [Example 3, 6-methyl-N-[3-[[1-(methylsulfonyl)-4-piperidinyl]oxy]phenyl]-4′-(trifluoro-methoxy)[1,1′-biphenyl]-2-carboxamide]	10.6 nM	49.2 nM
COC(=O)N1CCC(Oc2cccc(NC(=O)c3cccc(C)c3-c3ccc(OC(F)(F)F)cc3)c2)CC1 [Example 5, methyl 4-[3-[[[6-methyl-4′-(trifluoro-methoxy)[1,1′-biphenyl]-2-yl]carbonyl]-amino]phenoxy]-1-piperidinecarboxylate]	0.8 nM	45.1 nM
CCOC(=O)N1CCC(Oc2cccc(NC(=O)c3cccc(C)c3-c3ccc(OC(F)(F)F)cc3)c2)CC1 [Example 6, ethyl 4-[3-[[[6-methyl-4′-(trifluoromethoxy)-[1,1′-biphenyl]-2-yl]carbonyl]amino]-phenoxy]-1-piperidinecarboxylate]	4 nM	47.6 nM
COc1ccc(CC(=O)N2CCC(Oc3cccc(NC(=O)c4cccc(C)c4-c4ccc(OC(F)(F)F)cc4)c3)CC2)cc1OC [Example 105, N-[3-[[1-[2-(3,4-dimethoxyphenyl)-acetyl]-4-piperidinyl]oxy]phenyl]-6-methyl-4′-(trifluoromethoxy)[1,1′-biphenyl]-2-carboxamide]		207 nM
Cc1cccc(C(=O)Nc2cccc(OC3CCN(C(=O)c4cccnc4)CC3)c2)c1-c1ccc(OC(F)(F)F)cc1 [Example 106, 6-methyl-N-[3-[[1-(3-pyridinylcarbonyl)-4-piperidinyl]oxy]phenyl]-4′-(trifluorometh-oxy)[1,1′-biphenyl]-2-carboxamide]		182 nM
COc1ccc(CC(=O)N2CCC(Oc3cccc(NC(=O)c4ccccc4-c4ccc(OC(F)(F)F)cc4)c3)CC2)cc1OC [Example 110, N-[3-[[1-[2-(3,4-dimethoxyphenyl)acetyl]-4-piperidinyl]oxy]phenyl]-4′-(trifluoro-methoxy)[1,1′-biphenyl]-2-carboxamide]		469 nM
Cc1cccc(C(=O)Nc2cccc(OC3CCN(C(=O)c4ccco4)CC3)c2)c1-c1ccc(OC(F)(F)F)cc1 [Example 111, N-[3-[[1-(2-furanylcarbonyl)-4-piperidinyl]-oxy]phenyl]-6-methyl-4′-(trifluorometh-oxy)[1,1′-biphenyl]-2-carboxamide]		409 nM
O=C(Nc1cccc(OC2CCN(C(=O)c3ccc([N+](=O)[O-])cc3)CC2)c1)c1ccccc1-c1ccc(OC(F)(F)F)cc1 [Example 112, N-[3-[[1-(4-nitrobenzoyl)-4-piperidinyl]-oxy]phenyl]-4′-(trifluaromethoxy)[1,1′-biphenyl]-2-carboxamide]		241 nM
Cc1cccc(C(=O)Nc2cccc(OC3CCN(C(=O)c4ccc([N+](=O)[O-])cc4)CC3)c2)c1-c1ccc(OC(F)(F)F)cc1 [Example 114, 6-methyl-N-[3-[[1-(4-nitrobenzoyl)-4-piperidinyl]oxy]phenyl]-4′-(trifluorometh-oxy)[1,1′-biphenyl]-2-carboxamide]		202 nM
O=C(Nc1cccc(OC2CCN(C(=O)c3ccno3)CC2)c1)c1ccccc1-c1ccc(OC(F)(F)F)cc1 [Example 115, N-[3-[[1-(5-isoxazolylcarbonyl)-4-piperi-dinyl]oxy]phenyl]-4′-(trifluoromethoxy)-[1,1′-biphenyl]-2-carboxamide]		433 nM
Cc1ccc(C(=O)N2CCC(Oc3cccc(NC(=O)c4cccc(C)c4-c4ccc(OC(F)(F)F)cc4)c3)CC2)cc1 [Example 116, 6-methyl-N-[3-[[1-(4-methylbenzoyl)-4-piperidinyl]oxy]phenyl]-4′-(trifluorometh-oxy)[1,1′-biphenyl]-2-carboxamide]		49.4 nM
O=C(Nc1cccc(OC2CCN(C(=O)c3cccnc3)CC2)c1)c1ccccc1-c1ccc(OC(F)(F)F)cc1 [Example 118, N-[3-[[1-(3-pyridinylcarbonyl)-4-piperidin-yl]oxy]phenyl]-4′-(trifluoromethoxy)[1,1′-biphenyl]-2-carboxamide]		202 nM
O=C(Nc1cccc(OC2CCN(C(=O)c3ccccc3)CC2)c1)c1ccccc1-c1ccc(OC(F)(F)F)cc1 [Example 119, N-[3-[(1-benzoyl-4-piperidinyl)oxy]phenyl]-4′-(trifluoromethoxy)[1,1′-biphenyl]-2-carboxamide]		661 nM
COC(=O)CC(=O)N1CCC(Oc2cccc(NC(=O)c3ccccc3-c3ccc(OC(F)(F)F)cc3)c2)CC1 [Example 125, methyl β-oxo-4-[3-[[[4′-(trifluoromethoxy)-[1,1′-biphenyl]-2-yl]carbonyl]amino]-phenoxy]-1-piperidinepropanoate]		252 nM
CC(=O)OCC(=O)N1CCC(Oc2cccc(NC(=O)c3ccccc3-c3ccc(OC(F)(F)F)cc3)c2)CC1 [Example 126, N-[3-[[1-[2-(acetyloxy)acetyl]-4-piperidin-yl]oxy]phenyl]-4′-(trifluoromethoxy)[1,1′-biphenyl]-2-carboxamide]		91.2 nM
Cc1cccc(C(=O)Nc2cccc(OC3CCN(C(=O)CC(C)C)CC3)c2)c1-c1ccc(OC(F)(F)F)cc1 [Example 129, 6-methyl-N-[3-[[1-(3-methyl-1-oxobutyl)-4-piperidinyl]oxy]phenyl]-4′-(trifluorometh-oxy)[1,1′-biphenyl]-2-carboxamide]		136 nM
Cc1ccc(C(=O)N2CCC(Oc3cccc(NC(=O)c4ccccc4-c4ccc(OC(F)(F)F)cc4)c3)CC2)cc1 [Example 130, N-[3-[[1-(4-methylbenzoyl)-4-piperidinyl]-oxy]phenyl]-4′-(trifiuoromethoxy)[1,1′-biphenyl]-2-carboxamide]		219 nM
COC(=O)CCC(=O)N1CCC(Oc2cccc(NC(=O)c3ccccc3-c3ccc(OC(F)(F)F)cc3)c2)CC1 [Example 133, methyl γ-oxo-4-[3-[[[4′-(trifluoromethoxy)-[1,1′-biphenyl]-2-yl]carbonyl]amino]-phenoxy]-1-piperidinebutanoate]		296 nM
C/C=C/C(=O)N1CCC(Oc2cccc(NC(=O)c3ccccc3-c3ccc(OC(F)(F)F)cc3)c2)CC1 [Example 137, N-[3-[[1-[(2E)-1-oxo-2-butenyl]-4-piperi-dinyl]oxy]phenyl]-4′-(trifluoromethoxy)-[1,1′-biphenyl]-2-carboxamide]		209 nM
COc1ccc(C(=O)N2CCC(Oc3cccc(NC(=O)c4ccccc4-c4ccc(OC(F)(F)F)cc4)c3)CC2)cc1 [Example 138, N-[3-[[1-(4-methoxybenzoyl)-4-piperidin-yl]oxy]phenyl]-4′-(trifluoromethoxy)[1,1′-biphenyl]-2-carboxamide]		221 nM
CCOC(=O)CCC(=O)N1CCC(Oc2cccc(NC(=O)c3ccccc3-c3ccc(OC(F)(F)F)cc3)c2)CC1 [Example 139, ethyl γ-oxo-4-[3-[[[4′-(trifluoromethoxy)-[1,1′-biphenyl]-2-yl]carbonyl]amino]-phenoxy]-1-piperidinebutanoate]		309 nM
CC(C)(C)C(=O)N1CCC(Oc2cccc(NC(=O)c3ccccc3-c3ccc(OC(F)(F)F)cc3)c2)CC1 [Example 140, N-[3-[[1-(2,2-dimethyl-1-oxopropyl)-4-piperidinyl]oxy]phenyl]-4′-(trifluorometh-oxy)[1,1′-biphenyl]-2-carboxamide]		176 nM
Cc1cccc(C(=O)Nc2cccc(OC3CCN(C(=O)c4ccccc4)CC3)c2)c1-c1ccc(OC(F)(F)F)cc1 [Example 143, N-[3-[(1-benzoyl-4-piperidinyl)oxy]phenyl]-6-methyl-4′-(trifluoromethoxy)[1,1′-biphenyl]-2-carboxamide]		118 nM
